Read-outs that look alike come from different tables or passages of the source. Where a SMILES comes first, the peptide text is derived from it. [ ]: non-standard residue; d: D form. dPhe(4-Cl) = N[C@H](Cc1ccc(Cl)cc1)C(=O)O; d2Nal = N[C@H](Cc1ccc2ccccc2c1)C(=O)O; dCit = NC(=O)NCCC[C@@H](N)C(=O)O; d3Pal = N[C@H](Cc1cccnc1)C(=O)O
Assays:
[1] = cited from earlier work; for Estimated Half Life: estimated circulation half-life
[2] = system: GnRH receptors expressed on the surface of cultured cancer cells (OC-3-VGH); assay: Competitive binding assay on microwells coated with OC-3-VGH cancer cells; design: species or system human; details: for competition with mGHR106 binding to OC-3-VGH coated microwells: FIG. 1A, mGHR106 0.50 or 0.25 μg/ml; for competition with hGHR106 binding to OC-3-VGH coated microwells: FIG. 1B, peptides each at 1 μg/mL
Protocol: Competitive binding assays were carried out according to accepted protocols, e.g. as described in U.S. Pat. No. 8,361,793. […] The N1-29 oligopeptides are derived from the N-terminal extracellular domains of GnRH receptors from each species. The amino acid sequence of each of Hu-P, Mo-P and Mu-P are shown as SEQ ID NO:1, SEQ ID NO:2 and SEQ ID NO:3 respectively in FIG. 3.
The white bars and black bars in FIG. 1A represent the different concentrations of mGHR106 (0.50 μg/ml and 0.25 μg/ml, respectively) used in each assay. […] Goat anti-human IgG-ALP (alkaline phosphatase labeled) was used as the probe, with error bars for duplicate assays indicated.

[3] = system: OC-3-VGH, PC-3, A549 and MDA-MB-435 cancer cells; assay: TUNEL apoptosis assay of cultured and treated cancer cells; assay type: cell-based; details: co-incubation 24 to 72 hours, compared on a molar basis, FIGS. 2A and 2B
Protocol: In order to compare the anti-proliferative effects (or apoptosis) between mGHR106 or hGHR106 and antide on cancer cells, In Situ Cell Death Detection Kit, POD (Roche, Canada) was employed for detection and quantitation of apoptosis of cultured and treated cancer cells in vitro. Briefly cancer cells were cultured in RPMI-1640 medium at 37° C. in a CO2 (5%) incubator for 24 and/or 48 hours until all cancer cells are attached to microwells. Following removal of cell culture medium, fresh serum-free medium was added for an additional 3 hours incubation in a CO2 incubator.
After the serum-free starvation period, the cells were incubated in fresh medium containing 10% fetal calf serum, and hGHR106, mGHR106 or antide of known concentration was added for co-incubation of 24 to 72 hours. As the negative control, normal mouse IgG or normal human IgG of the same concentration was used for the same incubation period.
At the end of incubation, the attached cells were removed from tissue culture wells by appropriate cell detachment solution. Apoptosis of treated cancer cells was quantitatively determined by TUNEL assay with the instructions provided by Cell Death Detection Kit, POD (Roche, Canada). Percent increases of cells with apoptosis after treatments with any one of hGHR106, mGHR106 and antide were obtained by subtracting spontaneous apoptosis from the negative control. […]

OC-3-VGH cancer cells = assay: Comparative gene regulation study in cancer cells; assay type: cell-based, human; details: FIG. 4; upon ligand treatment of cancer cells
Text: Comparative gene regulation upon administration of hGHR106 or the decapeptide GnRH analog antide was examined using conventional protocols, e.g. as described in U.S. Pat. No. 8,361,793. […] Expressions of a number of selected genes involved in the proliferation or survival of cancer cells were compared. The selected genes include: GnRH, GnRHR, P0, P1, P2, L37, and EGF, c-fos, P21 and cyclin D1. P0, P1, P2, and L37 are ribosomal proteins.

[4] = clinically used antibodies and GnRH decapeptide analogs

| Compound | Estimated Half Life [1, 4] [h] | competition with mGHR106 binding to OC-3-VGH coated microwells [2] | competition with hGHR106 binding to OC-3-VGH coated microwells [2] | also measured |
| --- | --- | --- | --- | --- |
| Beracizumab | 480 | – | – | – |
| CC(=O)N[C@H](Cc1ccc2ccccc2c1)C(=O)N[C@H](Cc1ccc(Cl)cc1)C(=O)N[C@H](Cc1cccnc1)C(=O)N[C@@H](CO)C(=O)N[C@@H](Cc1ccc(O)cc1)C(=O)N[C@H](CCCNC(N)=O)C(=O)N[C@@H](CC(C)C)C(=O)N[C@@H](CCCNC(=N)N)C(=O)N1CCC[C@H]1C(=O)N[C@H](C)C(N)=O [Cetrorelix] (Ac-[d2Nal][dPhe(4-Cl)][d3Pal]SY[dCit]LRP[dA]-NH2) | 10 to 63 | – | – | – |
| Hu-P: N1-29 oligopeptide of N-terminal extracellular domain of human GnRH receptor, SEQ ID NO:1 (MANNASLEQDPNHCSAINNSIPLIQGKLPT; listed as Mus musculus) | – | compete | compete | – |
| Mu-P: N1-29 oligopeptide of N-terminal extracellular domain of mouse GnRH receptor, SEQ ID NO:3 (MANSASPEQNQNHCSAINNSIPLMQGNLPT; listed as Homo sapiens) | – | not | not | – |
| Luprorelin | 3 | – | – | – |
| Panitumumab | 180 | – | – | – |
| antide | – | – | – | induced apoptosis (percent increase of cells with apoptosis) [3]: very similar degrees of induced apoptosis; Cyclin D1 expression (OC-3-VGH cancer cells): downregulated; EGF expression (OC-3-VGH cancer cells): downregulated; GnRH expression (up-regulation) (OC-3-VGH cancer cells): 50%; expression of the GnRH receptor (GnRHR) (OC-3-VGH cancer cells): unchanged |
| Gonadotropin-releasing hormone [Native GnRH] | – | – | – | Estimated Half Life ([1]; native GnRH): 0.033 to 0.067 h; half-life in human circulation ([1]; human circulation): 2 to 4 min |
| Mo-P: N1-29 oligopeptide of N-terminal extracellular domain of monkey GnRH receptor, SEQ ID NO:2 (MANSALPEQNQNHCSVINNSIPLMQGNLPT; Pan troglodytes) | – | compete | compete | – |
